From ChEMBL document CHEMBL1201862, “PubChem BioAssay data set” (2004)
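Protocol summary: plate cells (96-well), add compound at 5 concentrations, incubate 48 h, interpolate endpoints linearly. GI50 is the concentration that inhibits growth by half.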 Activity calls are given as the source filed them. Cut-off read from the data, not from the text of the source: active = GI50 up to about 1.1 µM and inactive = higher.

Legend:
Experiment in all cases: DTP human tumour cell line panel, 48 h
OVCAR-3 = test system: OVCAR-3
SF-539 = test system: SF-539
OVCAR-5 = test system: OVCAR-5
NCI-H522 = test system: NCI-H522
LXFL 529 = test system: LXFL 529
OVCAR-8 = test system: OVCAR-8
M19-MEL = test system: M19-MEL
SK-MEL-28 = test system: SK-MEL-28
UACC-62 = test system: UACC-62
KM12 = test system: KM12
M14 = test system: M14
SK-MEL-5 = test system: SK-MEL-5
SK-OV-3 = test system: SK-OV-3
LOX IMVI = test system: LOX IMVI
EKVX = test system: EKVX
RXF 631 = test system: RXF 631
SW-620 = test system: SW-620
HOP-18 = test system: HOP-18
HL-60 = test system: HL-60
RXF 393 = test system: RXF 393
UACC-257 = test system: UACC-257
DLD-1 = test system: DLD-1
ACHN = test system: ACHN
IGROV-1 = test system: IGROV-1
OVCAR-4 = test system: OVCAR-4
NCI-H23 = test system: NCI-H23
SNB-78 = test system: SNB-78
HOP-62 = test system: HOP-62
K562 = test system: K562
SN12C = test system: SN12C
TK-10 = test system: TK-10
U-251 = test system: U-251
Malme-3M = test system: Malme-3M
SNB-19 = test system: SNB-19
UO-31 = test system: UO-31
CCRF-CEM = test system: CCRF-CEM
MOLT-4 = test system: MOLT-4
786-0 = test system: 786-0
HCT-15 = test system: HCT-15
SR = test system: SR
HT-29 = test system: HT-29
SK-MEL-2 = test system: SK-MEL-2
KM-20L2 = test system: KM-20L2
DMS-114 = test system: DMS-114
A498 = test system: A498
COLO 205 = test system: COLO 205
SNB-75 = test system: SNB-75
DMS-273 = test system: DMS-273
HCC 2998 = test system: HCC 2998
HCT-116 = test system: HCT-116
NCI-H460 = test system: NCI-H460
A549 = test system: A549
SF-268 = test system: SF-268

O=C(O)Cn1c(=O)[nH]c(=O)c2[nH]cnc21
GI50 (OVCAR-3): > 100 µM (inactive) | GI50 (SF-539): > 100 µM (inactive) | GI50 (OVCAR-5): > 100 µM (inactive) | GI50 (NCI-H522): > 100 µM (inactive) | GI50 (LXFL 529): > 100 µM (inactive) | GI50 (OVCAR-8): > 100 µM (inactive) | GI50 (M19-MEL): > 100 µM (inactive) | GI50 (SK-MEL-28): > 100 µM (inactive) | GI50 (UACC-62): > 100 µM (inactive) | GI50 (KM12): > 100 µM (inactive) | GI50 (M14): > 100 µM (inactive) | GI50 (SK-MEL-5): > 100 µM (inactive) | GI50 (SK-OV-3): > 100 µM (inactive) | GI50 (LOX IMVI): > 100 µM (inactive) | GI50 (EKVX): > 100 µM (inactive) | GI50 (RXF 631): > 100 µM (inactive) | GI50 (SW-620): > 100 µM (inactive) | GI50 (HOP-18): > 100 µM (inactive) | GI50 (HL-60): > 100 µM (inactive) | GI50 (RXF 393): > 100 µM (inactive) | GI50 (UACC-257): > 100 µM (inactive) | GI50 (DLD-1): > 100 µM (inactive) | GI50 (ACHN): > 100 µM (inactive) | GI50 (IGROV-1): > 100 µM (inactive) | GI50 (OVCAR-4): > 100 µM (inactive) | GI50 (NCI-H23): > 100 µM (inactive) | GI50 (SNB-78): > 100 µM (inactive) | GI50 (HOP-62): > 100 µM (inactive) | GI50 (K562): > 100 µM (inactive) | GI50 (SN12C): > 100 µM (inactive) | GI50 (TK-10): > 100 µM (inactive) | GI50 (U-251): > 100 µM (inactive) | GI50 (Malme-3M): > 100 µM (inactive) | GI50 (SNB-19): > 100 µM (inactive) | GI50 (UO-31): > 100 µM (inactive) | GI50 (CCRF-CEM): > 100 µM (inactive) | GI50 (MOLT-4): > 100 µM (inactive) | GI50 (786-0): > 100 µM (inactive) | GI50 (HCT-15): > 100 µM | GI50 (SR): > 100 µM (inactive) | GI50 (HT-29): > 100 µM (inactive) | GI50 (SK-MEL-2): > 100 µM (inactive) | GI50 (KM-20L2): > 100 µM (inactive) | GI50 (DMS-114): > 100 µM (inactive) | GI50 (A498): > 100 µM (inactive) | GI50 (COLO 205): > 100 µM (inactive) | GI50 (SNB-75): > 100 µM (inactive) | GI50 (DMS-273): > 100 µM (inactive) | GI50 (HCC 2998): > 100 µM (inactive) | GI50 (HCT-116): > 100 µM (inactive) | GI50 (NCI-H460): > 100 µM (inactive) | GI50 (A549): > 100 µM (inactive) | GI50 (SF-268): > 100 µM (inactive)
